In this assay the target is CDK12 (Homo sapiens, UniProt Q9NYV4). The experiment in a line: Biochemical assay for CDK12 (LANCE TR-FRET, IC50 determination). The conditions noted are these: for IC50: CDK12, IC50 class, read-out: IC50 μM (in range); for inhibition at 10 µM: compound at 10 μM, read-out: CDK12 % Inhibition @ 10 μM; for inhibition at 2 µM: compound at 2 μM (stated in the cell, not the 10 μM of the column head). The method in brief: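 30 nM CDK12 phosphorylated 100 nM ULight-4E-BP1 (Thr37/Thr46) peptide at 100 µM ATP, as printed, in HEPES pH 7.5 buffer with MgCl2 and DTT. Compound and enzyme were preincubated 60 min, then reacted 60 min at room temperature before stopping with EDTA and Eu anti-phospho antibody. TR-FRET 665/615 ratio gave sigmoidal IC50 fits.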
CDK12, sequence (Q9NYV4 whole entry): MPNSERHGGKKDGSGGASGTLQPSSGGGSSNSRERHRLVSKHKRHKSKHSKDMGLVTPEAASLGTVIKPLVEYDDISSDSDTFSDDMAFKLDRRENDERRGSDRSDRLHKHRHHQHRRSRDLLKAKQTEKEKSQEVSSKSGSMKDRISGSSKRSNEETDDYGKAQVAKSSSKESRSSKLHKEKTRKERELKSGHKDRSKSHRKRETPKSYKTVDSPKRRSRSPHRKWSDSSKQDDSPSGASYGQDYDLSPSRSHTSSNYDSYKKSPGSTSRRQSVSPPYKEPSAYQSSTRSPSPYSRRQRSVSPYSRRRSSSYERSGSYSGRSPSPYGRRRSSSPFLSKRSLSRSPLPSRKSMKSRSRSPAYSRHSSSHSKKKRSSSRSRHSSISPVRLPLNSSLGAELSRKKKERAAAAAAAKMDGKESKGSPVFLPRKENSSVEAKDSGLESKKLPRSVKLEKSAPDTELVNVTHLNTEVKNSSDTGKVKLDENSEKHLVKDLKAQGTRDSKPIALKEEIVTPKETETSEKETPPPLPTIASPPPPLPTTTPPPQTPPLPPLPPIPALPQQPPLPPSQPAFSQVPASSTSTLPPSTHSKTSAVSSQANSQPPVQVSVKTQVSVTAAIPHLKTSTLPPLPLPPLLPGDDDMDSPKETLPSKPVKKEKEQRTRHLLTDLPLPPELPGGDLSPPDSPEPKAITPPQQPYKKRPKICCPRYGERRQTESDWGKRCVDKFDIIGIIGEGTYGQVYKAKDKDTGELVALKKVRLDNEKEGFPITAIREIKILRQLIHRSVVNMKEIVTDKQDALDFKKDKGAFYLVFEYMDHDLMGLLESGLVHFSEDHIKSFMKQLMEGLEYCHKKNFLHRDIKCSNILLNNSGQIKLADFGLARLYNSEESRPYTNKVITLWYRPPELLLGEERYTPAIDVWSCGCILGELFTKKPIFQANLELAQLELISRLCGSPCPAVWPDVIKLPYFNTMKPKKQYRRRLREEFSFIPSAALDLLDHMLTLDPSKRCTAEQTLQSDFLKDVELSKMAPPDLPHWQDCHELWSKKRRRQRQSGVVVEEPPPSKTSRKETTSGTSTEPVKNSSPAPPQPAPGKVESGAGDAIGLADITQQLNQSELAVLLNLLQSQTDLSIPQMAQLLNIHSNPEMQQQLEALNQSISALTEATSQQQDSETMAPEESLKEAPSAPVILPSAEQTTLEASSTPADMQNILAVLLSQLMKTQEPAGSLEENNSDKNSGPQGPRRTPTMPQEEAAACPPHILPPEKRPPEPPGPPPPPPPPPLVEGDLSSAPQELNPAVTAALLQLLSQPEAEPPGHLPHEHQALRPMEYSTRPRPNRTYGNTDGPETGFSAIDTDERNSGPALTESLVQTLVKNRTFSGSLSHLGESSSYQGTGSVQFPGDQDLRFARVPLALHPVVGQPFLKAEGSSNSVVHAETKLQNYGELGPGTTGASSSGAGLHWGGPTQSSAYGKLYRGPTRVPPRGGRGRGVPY
CDK12, sequence (O75909 whole entry partner): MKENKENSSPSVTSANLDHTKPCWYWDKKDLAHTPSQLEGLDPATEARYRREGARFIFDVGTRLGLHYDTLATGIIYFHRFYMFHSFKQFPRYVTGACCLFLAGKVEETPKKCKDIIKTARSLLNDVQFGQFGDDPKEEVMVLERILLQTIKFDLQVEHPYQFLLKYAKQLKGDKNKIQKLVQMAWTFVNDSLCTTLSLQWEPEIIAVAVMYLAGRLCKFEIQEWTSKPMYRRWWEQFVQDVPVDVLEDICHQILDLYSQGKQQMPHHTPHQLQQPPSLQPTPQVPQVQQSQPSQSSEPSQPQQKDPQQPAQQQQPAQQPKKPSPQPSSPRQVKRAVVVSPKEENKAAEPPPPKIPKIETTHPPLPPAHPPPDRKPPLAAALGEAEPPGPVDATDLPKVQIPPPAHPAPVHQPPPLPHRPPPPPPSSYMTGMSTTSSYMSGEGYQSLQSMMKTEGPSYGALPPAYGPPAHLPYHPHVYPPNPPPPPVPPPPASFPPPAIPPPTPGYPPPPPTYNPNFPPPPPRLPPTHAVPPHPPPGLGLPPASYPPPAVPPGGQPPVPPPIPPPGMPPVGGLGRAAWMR

As to `CN1CCC(Oc2cc(NC(=O)Cc3ccc(C4CCN(C#N)CC4)nc3)ncc2Cl)CC1` [Compound 129, N-(5-chloro-4-((1-methylpiperidin-4-yl)oxy)pyridin-2-yl)-2-(6-(1-cyanopiperidin-4-yl)pyridin-3-yl)acetamide], the 50% inhibitory concentration (IC50) lay within 0.01 to 0.1 µM and the inhibition at 10 µM came to 94%. For `COc1cc(NC(=O)Cc2ccc(-c3ccc(CNC#N)nc3)nc2)ncc1Cl` [Compound 130, N-(5-chloro-4-methoxypyridin-2-yl)-2-(6′-(cyanamidomethyl)-[2,3′-bipyridin]-5-yl)acetamide] the same measures were 0.01 to 0.1 µM and 95%. As to `COc1cc(NC(=O)Cc2ccc(-c3ccc(CN(C)C#N)nc3)nc2)ncc1Cl` [Compound 131, N-(5-chloro-4-methoxypyridin-2-yl)-2-(6′-((N-methylcyanamido)methyl)-[2,3′-bipyridin]-5-yl)acetamide], the concentration for half-maximal inhibition (IC50) was 0.01 to 0.1 µM and the inhibition at 10 µM came to 93%. On to `COc1cc(NC(=O)Cc2ccc(-c3ccc(CN(C#N)C(C)C)nc3)nc2)ncc1Cl` [Compound 132, N-(5-chloro-4-methoxypyridin-2-yl)-2-(6′-((N-isopropylcyanamido)methyl)-[2,3′-bipyridin]-5-yl)acetamide], for which the concentration for half-maximal inhibition (IC50) is greater than 0.1 µM and the inhibition at 10 µM was 93%. As for `COc1cc(NC(=O)Cc2ccc(C34CCN(C#N)CC3C4)nc2)ncc1Cl` (centres unmarked) [Compound 133], the IC50 was less than 0.01 µM and the inhibition at 10 µM was 94%. For `COc1cc(NC(=O)Cc2ccc(N3CCN(C#N)CC3)nc2)ncc1Cl` [Compound 134, N-(5-chloro-4-methoxypyridin-2-yl)-2-(6-(4-cyanopiperazin-1-yl)pyridin-3-yl)acetamide] the same measures were 0.01 to 0.1 µM and 82%. In the same order, the values of `CP(C)(=O)c1cc(NC(=O)Cc2ccc(C3=CCCN(C#N)C3)nc2)ncc1Cl` [Compound 135, N-(5-chloro-4-(dimethylphosphoryl)pyridin-2-yl)-2-(1′-cyano-1′,2′,5′,6′-tetrahydro-[2,3′-bipyridin]-5-yl)acetamide] are greater than 0.1 µM and 78%. In the same order, the values of `N#CN1CC=C(c2ccc(CC(=O)Nc3cc(OC4CC5(CNC5)C4)c(Cl)cn3)cn2)CC1` [Compound 137, N-(4-((2-azaspiro[3.3]heptan-6-yl)oxy)-5-chloropyridin-2-yl)-2-(1′-cyano-1′,2′,3′,6′-tetrahydro-[2,4′-bipyridin]-5-yl)acetamide] are 0.01 to 0.1 µM and 89%. As to `CC1(C)CCC(Oc2cc(NC(=O)Cc3ccc(C4=CCN(C#N)CC4)nc3)ncc2Cl)CN1` (centres unmarked) [Compound 138, N-(5-chloro-4-((6,6-dimethylpiperidin-3-yl)oxy)pyridin-2-yl)-2-(1′-cyano-1′,2′,3′,6′-tetrahydro-[2,4′-bipyridin]-5-yl)acetamide], the concentration for half-maximal inhibition (IC50) is greater than 0.1 µM and the inhibition at 10 µM was 80%. For `CC1(C)CC(Oc2cc(NC(=O)Cc3ccc(C4=CCN(C#N)CC4)nc3)ncc2Cl)CCN1` (centres unmarked) [Compound 139, N-(5-chloro-4-((2,2-dimethylpiperidin-4-yl)oxy)pyridin-2-yl)-2-(1′-cyano-1′,2′,3′,6′-tetrahydro-[2,4′-bipyridin]-5-yl)acetamide] the same measures were 0.01 to 0.1 µM and 95%. With `COc1cc(NC(=O)Cc2ccc(-c3ccc(C#N)nc3)nc2)ncc1Cl` [Compound 140, N-(5-chloro-4-methoxypyridin-2-yl)-2-(6′-cyano-[2,3′-bipyridin]-5-yl)acetamide], the IC50 is greater than 0.1 µM and the inhibition at 10 µM was determined as 83%. In the same order, the values of `COc1cc(NC(=O)Cc2ccc(-c3cnc(C#N)nc3)nc2)ncc1Cl` [Compound 141, N-(5-chloro-4-methoxypyridin-2-yl)-2-(6-(2-cyanopyrimidin-5-yl)pyridin-3-yl)acetamide] are 0.01 to 0.1 µM and 92%. For `COc1cc(NC(=O)Cc2ccc(-c3ccnc(C#N)c3)nc2)ncc1Cl` [Compound 142, N-(5-chloro-4-methoxypyridin-2-yl)-2-(2′-cyano-[2,4′-bipyridin]-5-yl)acetamide], the concentration for half-maximal inhibition (IC50) lay in the range of 0.01 to 0.1 µM. For the molecule `CNC(=O)C(C)Oc1cc(NC(=O)Cc2ccc(-c3ccc(C#N)nc3)nc2)ncc1Cl` (centres unmarked) [Compound 143, 2-((5-chloro-2-(2-(6′-cyano-[2,3′-bipyridin]-5-yl)acetamido)pyridin-4-yl)oxy)-N-methylpropanamide], the IC50 was in the range of 0.01 to 0.1 µM and the inhibition at 10 µM came to 92%. For `CNC(=O)C(C)Oc1cc(NC(=O)Cc2ccc(-c3ccnc(C#N)c3)nc2)ncc1Cl` (centres unmarked) [Compound 144, 2-((5-chloro-2-(2-(2′-cyano-[2,4′-bipyridin]-5-yl)acetamido)pyridin-4-yl)oxy)-N-methylpropanamide] the same measures were 0.01 to 0.1 µM and 92%. For `N#Cc1cc(-c2ccc(CC(=O)Nc3cc(O[C@@H]4CCOC4)c(Cl)cn3)cn2)ccn1` [Compound 145, (R)-N-(5-chloro-4-((tetrahydrofuran-3-yl)oxy)pyridin-2-yl)-2-(2′-cyano-[2,4′-bipyridin]-5-yl)acetamide] the same measures were 0.01 to 0.1 µM and 79%. For `N#Cc1ccc(-c2ccc(CC(=O)Nc3cc(O[C@@H]4CCOC4)c(Cl)cn3)cn2)cn1` [Compound 146, (R)-N-(5-chloro-4-((tetrahydrofuran-3-yl)oxy)pyridin-2-yl)-2-(6′-cyano-[2,3′-bipyridin]-5-yl)acetamide] the same measures were 0.01 to 0.1 µM and 90%. As to `CNC(=O)[C@H](C)Oc1cc(NC(=O)Cc2ccc(-c3ccc(C#N)nc3)nc2)ncc1Cl` [Compound 147, (S)-2-((5-chloro-2-(2-(6′-cyano-[2,3′-bipyridin]-5-yl)acetamido)pyridin-4-yl)oxy)-N-methylpropanamide], the half-maximal inhibitory concentration (IC50) was in the range of 0.01 to 0.1 µM and the inhibition at 10 µM was 89%.

With `CNC(=O)[C@H](C)Oc1cc(NC(=O)Cc2ccc(-c3ccnc(C#N)c3)nc2)ncc1Cl` [Compound 148, (S)-2-((5-chloro-2-(2-(2′-cyano-[2,4′-bipyridin]-5-yl)acetamido)pyridin-4-yl)oxy)-N-methylpropanamide], the IC50 fell in the range of 0.01 to 0.1 µM and the inhibition at 10 µM was determined as 89%. On to `COc1cc(NC(=O)Cc2ccc(-c3ccc(C#N)c(F)c3)nc2)ncc1Cl` [Compound 149, N-(5-chloro-4-methoxypyridin-2-yl)-2-(6-(4-cyano-3-fluorophenyl)pyridin-3-yl)acetamide], for which the inhibition at 10 µM turned out to be 54%. Regarding `N#Cc1ncc(-c2ccc(CC(=O)Nc3cc(O[C@@H]4CCOC4)c(Cl)cn3)cn2)cn1` [Compound 150, (R)-N-(5-chloro-4-((tetrahydrofuran-3-yl)oxy)pyridin-2-yl)-2-(6-(2-cyanopyrimidin-5-yl)pyridin-3-yl)acetamide], the IC50 was 0.01 to 0.1 µM and the inhibition at 10 µM came to 83%. For `CNC(=O)[C@H](C)Oc1cc(NC(=O)Cc2ccc(-c3cnc(C#N)nc3)nc2)ncc1Cl` [Compound 151, (S)-2-((5-chloro-2-(2-(6-(2-cyanopyrimidin-5-yl)pyridin-3-yl)acetamido)pyridin-4-yl)oxy)-N-methylpropanamide] the same measures were 0.01 to 0.1 µM and 79%. As for `COc1cc(NC(=O)Cc2ccc(-c3cccc(C#N)n3)cc2)ncc1Cl` [Compound 152, N-(5-chloro-4-methoxypyridin-2-yl)-2-(4-(6-cyanopyridin-2-yl)phenyl)acetamide], the IC50 is greater than 0.1 µM.

`COc1cc(NC(=O)Cc2ccc(-c3cccc(C#N)n3)c(F)c2)ncc1Cl` [Compound 153, N-(5-chloro-4-methoxypyridin-2-yl)-2-(4-(6-cyanopyridin-2-yl)-3-fluorophenyl)acetamide]: the inhibition at 10 µM was 34%.

Regarding `N#Cc1cccc(-c2ccc(CC(=O)Nc3cc(O[C@@H]4CCOC4)c(Cl)cn3)cn2)n1` [Compound 154, (R)-N-(5-chloro-4-((tetrahydrofuran-3-yl)oxy)pyridin-2-yl)-2-(6′-cyano-[2,2′-bipyridin]-5-yl)acetamide], the half-maximal inhibitory concentration (IC50) was less than 0.01 µM and the inhibition at 10 µM is 77%. Take `COc1cc(NC(=O)Cc2ccc(-c3cccc(C#N)n3)nc2)ncc1Cl` [Compound 156, N-(5-chloro-4-methoxypyridin-2-yl)-2-(6′-cyano-[2,2′-bipyridin]-5-yl)acetamide]: the IC50 was less than 0.01 µM and the inhibition at 10 µM is 80%. In the same order, the values of `COc1cc(NC(=O)Cc2ccc(-c3cncc(C#N)n3)nc2)ncc1Cl` [Compound 157, N-(5-chloro-4-methoxypyridin-2-yl)-2-(6-(6-cyanopyrazin-2-yl)pyridin-3-yl)acetamide] are less than 0.01 µM and 84%. With `COc1cc(NC(=O)Cc2ccc(-c3ccc(C)c(C#N)n3)nc2)ncc1Cl` [Compound 158, N-(5-chloro-4-methoxypyridin-2-yl)-2-(6′-cyano-5′-methyl-[2,2′-bipyridin]-5-yl)acetamide], the IC50 is greater than 0.1 µM and the inhibition at 2 µM was determined as 70%.

For the molecule `COc1cc(NC(=O)Cc2ccc(-c3cc(C)cc(C#N)n3)nc2)ncc1Cl` [Compound 159, N-(5-chloro-4-methoxypyridin-2-yl)-2-(6′-cyano-4′-methyl-[2,2′-bipyridin]-5-yl)acetamide], the IC50 lay within 0.01 to 0.1 µM and the inhibition at 2 µM came out at 90%.

Regarding `COc1cc(NC(=O)Cc2ccc(-c3nc(C#N)ccc3C)nc2)ncc1Cl` [Compound 160, N-(5-chloro-4-methoxypyridin-2-yl)-2-(6′-cyano-3′-methyl-[2,2′-bipyridin]-5-yl)acetamide], the IC50 is greater than 0.1 µM and the inhibition at 10 µM worked out at 76%.

As usually defined, the IC50 is the point on the concentration scale where inhibition reaches its midpoint. As a reminder, the inhibition is the drop in the measured response relative to a control, in per cent.
